tested on: mice; experiment: Sub-threshold hypnotic dose sodium pentobarbital induced sleeping test; format: in vivo; settings: intraperitoneal, 1 mg/kg, 30 min before sub-threshold sodium pentobarbital (22 mg/kg ip)
Protocol: N^6-substituted adenosine derivatives and/or N^6-substituted adenine derivatives potentiated sodium pentobarbital-induced sleep in mice
Name of Experiment: Sub-threshold hypnotic dose sodium pentobarbital induced sleeping test
Method of Experiment: Mice (n=7-10) were pretreated with test compound or vehicle, after 30 min, a maximal sub-threshold hypnotic dose of sodium pentobarbital (22 mg/kg) was given intraperitoneally (ip). (On some condition, the sub-threshold dosage of sodium pentobarbital should be optimized to the maximum dose, at which the rate of sleep onset of vehicle group is less than 10%). […] Following sodium pentobarbital injection, each mouse was observed 15 min for onset of sleep. The percentage of sleep onset was calculated as: (number of animals falling asleep/total number of animals)×100%.

Compound | Sleep rate (%)
COc1ccc(CNc2ncnc3c2ncn3[C@@H]2O[C@H](CO)[C@@H](O)[C@H]2O)cc1O [Example 29, N^6-(4-methoxy-3-hydroxybenzyl)-adenosine] | 86
COc1ccc(CNc2ncnc3c2ncn3[C@@H]2O[C@H](CO)[C@@H](O)[C@H]2O)cc1OC [Example 30, N^6-(3,4-dimethoxybenzyl)-adenosine] | 100
COc1cc(CCNc2ncnc3c2ncn3[C@@H]2O[C@H](CO)[C@@H](O)[C@H]2O)ccc1O [Example 39, N^6-[(3-methoxy-4-hydroxyphenyl)-ethyl]-adenosine] | 88
COc1cc(CNc2ncnc3c2ncn3[C@@H]2O[C@H](CO)[C@@H](O)[C@H]2O)ccc1O [Example 23, N^6-(3-methoxy-4-hydroxybenzyl)-adenosine] | 100
O=[N+]([O-])c1ccccc1CNc1ncnc2c1ncn2[C@@H]1O[C@H](CO)[C@@H](O)[C@H]1O [Example 9, N^6-(o-nitrobenzyl)-adenosine] | 100
COc1cc(CNc2ncnc3nc[nH]c23)ccc1O [N^6-(3-methoxy-4-hydroxybenzyl)-adenine] | 38
COc1ccccc1CNc1ncnc2c1ncn2[C@@H]1O[C@H](CO)[C@@H](O)[C@H]1O [N^6-(o-methoxybenzyl)-adenosine] | 100

same assay, conditions: intraperitoneal, 2 mg/kg, 30 min before sub-threshold sodium pentobarbital (22 mg/kg ip)

Compound | Sleep rate (%)
Cc1ccc(-c2nc3ccc(C)cn3c2CC(=O)N(C)C)cc1 [zolpidem, reference compound] | 75

same assay, conditions: intraperitoneal, 5 mg/kg, 30 min before sub-threshold sodium pentobarbital (22 mg/kg ip)

Compound | Sleep rate (%)
O=C(O)[C@@H](Cc1ccccc1)Nc1ncnc2c1ncn2[C@@H]1O[C@H](CO)C(O)C1O (some centres unmarked) [Example 103, N-(6-adenosine)-(D)-phenylalanine] | 17
OC[C@H]1O[C@@H](n2cnc3c(N4CCN(c5ccccc5)CC4)ncnc32)C(O)C1O (some centres unmarked) [Example 16] | 50
OC[C@H]1O[C@@H](n2cnc3c(NCc4ccco4)ncnc32)[C@H](O)[C@@H]1O [Example 17, N^6-(2-furanylmethyl)-adenosine] | 71

tested on: male ICR-mice; experiment: Potentiation of sodium pentobarbital sleeping time test; format: in vivo; settings: intraperitoneal, 1 mg/kg, 38 mg/kg sodium pentobarbital 30 min later
Protocol: Effects of N^6-substituted adenosine derivatives and/or N^6-substituted adenine derivatives on sodium pentobarbital-induced sleeping time in mice.
Name of Experiment: Potentiation of sodium pentobarbital sleeping time test.
Method of Experiment: Groups of 8-10 male ICR-mice with an average weight of 18-22 g were used. They were dosed orally or i.p. with the test compound or the vehicle. Thirty min after i.p. injection or 60 min after oral dosing 38 mg/kg sodium pentobarbital were injected intravenously. The latency and duration of sleep (loss of righting reflex) were recorded. The percentage of prolongation of sleeping time was calculated as: [(sleeping time of experimental group)−(sleeping time of control group)]/(sleeping time of control group)×100%.

Compound | Sleep prolonging rate (%)
COc1cc(CCNc2ncnc3c2ncn3[C@@H]2O[C@H](CO)[C@@H](O)[C@H]2O)ccc1O [Example 39, N^6-[(3-methoxy-4-hydroxyphenyl)-ethyl]-adenosine] | 13
OC[C@H]1O[C@@H](n2cnc3c(NCCc4ccc(O)c(O)c4)ncnc32)C(O)C1O (some centres unmarked) [Example 38] | 98
COc1cc(CNc2ncnc3c2ncn3[C@@H]2O[C@H](CO)C(O)C2O)cc(OC)c1OC (some centres unmarked) [Example 37, N^6-(3,4,5-trimethxoybenzyl)-adenosine] | 112
Cc1ccc(CNc2ncnc3c2ncn3[C@@H]2O[C@H](CO)[C@@H](O)[C@H]2O)cc1 [Example 4, N^6-(p-methylbenzyl)-adenosine] | 51

same assay, conditions: intraperitoneal, 5 mg/kg, 38 mg/kg sodium pentobarbital 30 min later

Compound | Sleep prolonging rate (%)
O=C(O)[C@@H](Cc1ccccc1)Nc1ncnc2c1ncn2[C@@H]1O[C@H](CO)C(O)C1O (some centres unmarked) [Example 103, N-(6-adenosine)-(D)-phenylalanine] | 19
OC[C@H]1O[C@@H](n2cnc3c(N4CCN(c5ccccc5)CC4)ncnc32)C(O)C1O (some centres unmarked) [Example 16] | 34
O=C(O)[C@H](Cc1c[nH]c2ccccc12)Nc1ncnc2c1ncn2[C@@H]1O[C@H](CO)C(O)C1O (some centres unmarked) [Example 112, N-(6-adenosine)-(D)-tryptophan] | 89
O=C(O)[C@H](Cc1ccc(O)cc1)Nc1ncnc2c1ncn2[C@@H]1O[C@H](CO)C(O)C1O (some centres unmarked) [Example 107, N-(6-adenosine)-(L)-tyrosine] | 66

same assay, conditions: oral, 2.5 mg/kg, 38 mg/kg sodium pentobarbital 60 min later

Compound | Sleep prolonging rate (%)
CC[C@H](Nc1ncnc2c1ncn2[C@@H]1O[C@H](CO)[C@@H](O)[C@H]1O)c1ccccc1 [Example 78, N^6-[(S)-1-(phenyl)-propyl]-adenosine] | 49

same assay, conditions: oral, 4 mg/kg, 38 mg/kg sodium pentobarbital 60 min later

Compound | Sleep prolonging rate (%)
COc1cc(CNc2ncnc3c2ncn3[C@@H]2O[C@H](CO)[C@@H](O)[C@H]2O)ccc1O [Example 23, N^6-(3-methoxy-4-hydroxybenzyl)-adenosine] | 87

same assay, conditions: oral, 5 mg/kg, 38 mg/kg sodium pentobarbital 60 min later

Compound | Sleep prolonging rate (%)
CSCC[C@@H](CO)Nc1ncnc2c1ncn2[C@@H]1O[C@H](CO)C(O)C1O (some centres unmarked) [Example 132, N^6-[(L)-2-(1-hydroxy-4-methylthioyl)-butyl]-adenosine] | 53
COc1cc(CNc2ncnc3c2ncn3[C@H]2C[C@@H](OC(C)=O)[C@@H](COC(C)=O)O2)ccc1O [Example 148, N^6-(3-methoxy-4-hydroxy-benzyl)-2′-deoxy-3′,5′-diacetyl adenosine] | 71
C[C@@H](Nc1ncnc2c1ncn2[C@@H]1O[C@H](CO)[C@@H](O)[C@H]1O)c1ccc(F)cc1 [Example 70, N^6-[(R)-1-(4-fluorophenyl)-ethyl]-adenosine] | 136
C[C@H](Nc1ncnc2c1ncn2[C@@H]1O[C@H](CO)[C@@H](O)[C@H]1O)c1ccc(Cl)cc1 [Example 69, N^6-[(S)-1-(4-chlorophenyl)-ethyl]-adenosine] | 33
CC(O)CN(CC(C)O)c1ncnc2c1ncn2[C@@H]1O[C@H](CO)[C@@H](O)[C@H]1O (some centres unmarked) [Example 140, N^6,N^6-bis(2-hydroxypropyl)-adenosine] | 5
Cc1ccc(CNc2ncnc3c2ncn3[C@H]2C[C@H](O)[C@@H](CO)O2)cc1 [Example 151, N^6-(p-methylbenzyl)-2′-deoxy-adenosine] | 34
COc1ccc(CCC(=O)OC[C@H]2O[C@@H](n3cnc4c(NC(C)c5cc(OC)c(OC)c(OC)c5)ncnc43)C(O)C2O)cc1 (mixture of isomers) [Example 54, N^6-[(±)-1-(3,4,5-trimethoxyphenyl)-ethyl]-adenosine-5′-p-methoxy-phenyl propionate] | 76
CC[C@H](Nc1ncnc2c1ncn2[C@@H]1O[C@H](COC(=O)/C=C/c2ccc(C)cc2)C(O)C1O)c1ccccc1 (stereo in doubt) [Example 82, N^6-[(S)-1-(phenyl)-propyl]-adenosine-5′-p-methyl-cinnamate] | 50
CCCC(=O)OCC1OC(n2cnc3c(NCc4ccc(OC(=O)CCC)c(OC)c4)ncnc32)C2OC(C)(C)OC12 (centres unmarked) [N^6-(3-methoxy-4-butanoyloxy-benzyl)-2′,3′-O-isopropylidene-adenosine-5′-butyrate] | 21
N^6-[(S)-1-(phenyl)-propyl]-adenosine-5′-decanoic ether [Example 84] | 4
OC[C@H]1O[C@@H](n2cnc3c(NCCc4ccc(O)c(O)c4)ncnc32)C(O)C1O (some centres unmarked) [Example 38] | 69
CCCCCCCC(=O)OC[C@H]1O[C@@H](n2cnc3c(NCc4ccc(OC(=O)CCCCCCC)c(OC)c4)ncnc32)[C@H](O)[C@@H]1O [Example 26, N^6-(3-methoxy-4-octanoyloxybenzyl)-adenosine-5′-caprylate] | 184
CCOC(=O)[C@H](Cc1ccc(O)cc1)Nc1ncnc2c1ncn2[C@@H]1O[C@H](CO)C(O)C1O (some centres unmarked) [Example 109, N-(6-adenosine)-(L)-tyrosine ethyl ester] | 36
CCCOC[C@H]1O[C@@H](n2cnc3c(NC(C)c4cc(OC)c(OC)c(OC)c4)ncnc32)C(O)C1O (mixture of isomers) [Example 55, N^6-[(±)-1-(3,4,5-trimethoxyphenyl)-ethyl]-adenosine-5′-propyl ether] | 14
COc1ccc2c(c1)CCCC2Nc1ncnc2c1ncn2[C@@H]1O[C@H](CO)[C@@H](O)[C@H]1O (mixture of isomers) [Example 96, N^6-[(±)-(6-methoxy-1,2,3,4-tetrahydro-naphthalene-1-yl)]-adenosine] | 170
N^6-[(R)-1-(phenyl)-propyl]-2′,3′-O-isopropylidene-adenosine-5′-acetate | 18
OC[C@H]1O[C@@H](n2cnc3c(NC4CCCc5c(O)cccc54)ncnc32)[C@H](O)[C@@H]1O (mixture of isomers) [Example 97, N^6-[(±)-(5-hydroxy-1,2,3,4-tetrahydro-naphthalene-1-yl)]-adenosine] | 39
OC[C@H]1O[C@@H](n2cnc3c(NC4c5ccccc5-c5ccccc54)ncnc32)[C@H](O)[C@@H]1O [Example 98, N^6-(fluorene-9-yl)-adenosine] | 53
CN(c1ncnc2c1ncn2[C@@H]1O[C@H](CO)[C@@H](O)[C@H]1O)C1CCCCC1 [Example 141, N^6-methyl-N^6-cyclohexyl-adenosine] | 55
CC(=O)OC[C@H]1O[C@@H](n2cnc3c(NCc4ccc(C)cc4)ncnc32)C[C@H]1OC(C)=O [Example 150, N^6-(p-methylbenzyl)-2′-deoxy-3′,5′-diacetyl adenosine] | 9
CCCC(=O)Oc1ccc(CNc2ncnc3c2ncn3[C@@H]2O[C@H](CO)[C@@H](O)[C@H]2O)cc1OC [N^6-(3-methoxy-4-butanoyloxy-benzyl)-adenosine] | 11
C[C@H]([C@H](O)c1ccccc1)N(C)c1ncnc2c1ncn2[C@@H]1O[C@H](CO)C(O)C1O (stereo partly drawn) [Example 136, N^6-methyl-N^6-[2-(1R,2R)-(1-hydroxy-1-phenyl)-propyl]-adenosine] | 44
CC[C@H](Nc1ncnc2c1ncn2[C@@H]1O[C@H](COC(C)=O)C(OC(C)=O)C1OC(C)=O)c1ccccc1 (stereo partly drawn) [Example 79, N^6-[(S)-1-(phenyl)-propyl]-adenosine-2′,3′,5′-triacetate] | 41

— patent publication US10174033B2, “N6-substituted adenosine derivatives and N6-substituted adenine derivatives and uses thereof” (INSTITUTE OF MATERIA MEDICA, CHINESE ACADEMY OF MEDICAL …, priority 2009, dated 2019)
